Assay results published in PubChem BioAssay (NCI).
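Five compound concentrations were applied to cells in 96-well plates for 48 hours; endpoints were derived by simple linear interpolation of the resulting dose-response curve. Here, GI50 denotes the concentration required for 50% inhibition of growth. TGI marks complete inhibition of growth.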

What was measured:
Assay in all cases: DTP human tumour cell line panel, 48 h
[1] = test system: CAKI-1 renal
[2] = test system: K-562 leukemia
[3] = test system: MALME-3M melanoma
[4] = test system: MCF7 breast
[5] = test system: NCI-H460 lung
[6] = test system: PC-3 prostate
[7] = test system: SNB-19 CNS
[8] = test system: TK-10 renal
[9] = test system: MDA-MB-231 breast

Compound	GI50 [1] [µM]	TGI [1] [µM]	GI50 [2] [µM]	TGI [2] [µM]	GI50 [3] [µM]	TGI [3] [µM]	GI50 [4] [µM]	GI50 [5] [µM]	GI50 [6] [µM]	TGI [7] [µM]	GI50 [8] [µM]	TGI [8] [µM]	TGI [5] [µM]	TGI [4] [µM]	GI50 [9] [µM]	TGI [9] [µM]	TGI [6] [µM]	GI50 [7] [µM]
COc1cc(C2c3[nH]c4ccccc4c3C[C@H]3COC(=O)N23)cc(OC)c1OC (stereo not given in full)	< 0.01	> 100	< 0.01	1.13	< 0.01	> 100	< 0.01	< 0.01	< 0.01	3.16	< 0.01	> 100						
CC1CC[C@]2(C(=O)O)CCC3(COC(=O)/C=C\c4ccc(O)cc4)C(=CCC4[C@@]5(C)CC[C@H](O)C(C)(C)C5CC[C@]43C)[C@@H]2[C@H]1C (stereo not given in full)		48.3		> 100		87.9				32.7		44.7	35.5					
C=C1C(=O)O[C@H]2[C@H]1CC/C(CNC(=O)Cc1c[nH]c3ccccc13)=C\CC[C@@]1(C)O[C@@H]21	4.77	17.1	0.337	11.1	3.42	7.39	0.404	12	6.36	35.2	0.747	2.01	29.5	3.3	3.87	17.5	21.1	15
Cc1c2cc[n+](C)cc2c(C)c2c1sc1ccccc12		60.6		41.3		1.92				2		68.5	6.02	41.8		11.2	13.1	
Cc1ccc([N+](=O)[O-])cc1NC(=O)Nc1cccc(F)c1	3.35	> 100	2.63	71.4	4.66	51.8	3.63	3.09	3.44	97.1	4.19	17.7	16.1	> 100	13.3	96.6	> 100	6.27
O=C(Nc1ccc(Cl)cc1Cl)C1C(=O)N(c2ccc(Cl)cc2Cl)C(=O)/C1=N\Nc1ccc([N+](=O)[O-])cc1[N+](=O)[O-] (stereo not given)		> 100		> 100		> 100				> 100		> 100	> 100					
CC1CC(C2=CC=CCS2)=Nc2ccccc2S1 (stereo not given)		> 100		> 100		> 100				> 100		> 100	> 100					
CCN(CC)CCOCC[C@H]1CC[C@H]2[C@@H]3[C@H](C)Cc4cc(OS(N)(=O)=O)ccc4[C@H]3CC[C@]12C	1.36	2.97	0.547	2.26			0.219	1.23	1.57	3.17	1.3	3.34	2.56	2.28	1.5	3.03	4.48	1.71
Cc1ccc(S(=O)(=O)N[C@H](C(=O)O)c2ccccc2)cc1		> 100		> 100		> 100				> 100		> 100	> 100					
CCSCC1CC(O)(c2ccccc2)C(c2ccccc2)C(c2ccc(Cl)cc2)O1 (stereo not given)	1.49	4.06	1.89	8.37	1.58	3.18	1.85	1.42	1.48		2.27	5.4	3.44	5.35	1.82	4.41	4.86	
COc1ccc(C(=O)c2cc(OC)c(OC)c(OC)c2)cc1		> 88.1		> 100		> 100				> 32.7		> 100	17.2	> 100		> 100		
O=C(Nc1ccccc1-c1n[nH]c(=S)[nH]c1=O)C(F)(F)F		> 100		> 100		> 100				> 100		> 100	> 100					
COc1ccc(C2CC(c3cc(OC)c(OC)c(OC)c3)=NO2)cc1OCCCCOc1cc2c(cc1OC)C(=O)N1CCC[C@H]1C=N2 (stereo not given in full)	3.09	> 100	1.26	6.74			1.75	1.85	0.585	4.97	3.51	9.41	4	12.3	1.15	2.61	3.04	1.96
ON/N=C/c1cc2c(cc1Br)OCO2		> 386		> 386		> 386				> 386		> 386	> 386					
COc1cccc2c1C(=O)C=CC2=O		13		4.97		30.6				29.3		28.4	32.6	4.82		4.76		
NC1=NC(=O)/C(=C/c2ccccc2[N+](=O)[O-])C(N)=N1		> 100		> 100		> 100				> 100		> 100	> 100					
O=C1C(Cl)=C(Nc2cccc(Cl)c2)C(=O)N1Cc1ccccc1	5.06	27.7	2.9	> 100	5.12	20.1	14.9	7.11	3.52	55.1	13.9	32.3	27.9	> 100			20.1	14.5
O=C(Nc1c(O)[nH]c(=S)[nH]c1=O)c1ccccc1F		> 100		> 100		> 100				> 100		> 100	> 100					
CC(C)(C)OC1=C(OC(C)(C)C)C(O)(c2ccccc2)C1=O (stereo not given)				> 100		> 100				> 100		> 100	> 100					
COC(=O)C1=C(c2ccc(OC)c(OC)c2)OC(c2ccc(OC)c(OC)c2)C1 (stereo not given)				> 100		69.3						> 100	> 100					
CN1C(=O)CC(c2cccc(C3CC(=O)N(C)C3=O)n2)C1=O (stereo not given)		> 100		> 100		> 100				> 100		> 100	> 100					
